For 14 compounds, pest or weed control results are on record in patent US20220125051A1, “PRE-HARVEST DESICCATION METHOD” (SYNGENTA CROP PROTECTION AG, priority 2019, published 2022).

Holding throughout (experiment): Post-emergence efficacy, Method A
Holding throughout (format): in vivo

For experiment [1], the system named is Digitaria sanguinalis (DIGSA). Conditions: Digitaria sanguinalis, post-emergence, 312 h; Application Rate 500 g/Ha; evaluated after 13 days; Method A; read-out: Control of weed species after post-emergence application, DIGSA (100=total damage to plant; 0=no damage to plant). In short, it runs like this:
(§1)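 Post-emergence spray on 14-day-old glasshouse plants (24/16 °C day/night, 14 h photoperiod, 65% humidity). Test material was taken up in acetone and IF50 emulsifier mix, then diluted with sodium lauryl ether sulphate (0.25% or 1%) plus 1% ammonium sulphate. Damage was rated 13 days later, 100 = total.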

The subject of experiment [2] is Ipomoea hederacea (IPOHE). Particulars: Ipomoea hederacea, post-emergence, 312 h, Application Rate 500 g/Ha; evaluated after 13 days; Method A; read-out: Control of weed species after post-emergence application, IPOHE (100=total damage to plant; 0=no damage to plant). In short, it runs like this:
as §1

The test system of experiment [3] is Chenopodium album (CHEAL). Particulars: Chenopodium album, post-emergence, 312 h; Application Rate 500 g/Ha; evaluated after 13 days; Method A; read-out: Control of weed species after post-emergence application, CHEAL (100=total damage to plant; 0=no damage to plant). In short, it runs like this: as §1
For experiment [4], the system named is Amaranthus palmeri (AMAPA). Particulars: Amaranthus palmeri, post-emergence, 312 h; Application Rate 500 g/Ha; evaluated after 13 days; Method A; read-out: Control of weed species after post-emergence application, AMAPA (100=total damage to plant; 0=no damage to plant). In short, it runs like this:
as §1

The subject of a further experiment is Eleusine indica (ELEIN). Particulars: Eleusine indica, post-emergence, 312 h; Application Rate 500 g/Ha; evaluated after 13 days; Method A; read-out: Control of weed species after post-emergence application, ELEIN (100=total damage to plant; 0=no damage to plant). In short, it runs like this: as §1
Experiment [5] deals with Euphorbia heterophylla (EPHHL). Conditions: Euphorbia heterophylla, post-emergence, 312 h; Application Rate 500 g/Ha; evaluated after 13 days; Method A; read-out: Control of weed species after post-emergence application, EPHHL (100=total damage to plant; 0=no damage to plant). In short, it runs like this:
as §1

The test system of experiment [6] is Echinochloa crus-galli (ECHCG). Particulars: Echinochloa crus-galli, post-emergence, 312 h; Application Rate 500 g/Ha; evaluated after 13 days; Method A; read-out: Control of weed species after post-emergence application, ECHCG (100=total damage to plant; 0=no damage to plant). In short, it runs like this:
as §1

In a further experiment the test system is Lolium perenne (LOLPE). Conditions: Lolium perenne, post-emergence, 312 h, Application Rate 500 g/Ha; evaluated after 13 days; Method A; read-out: Control of weed species after post-emergence application, LOLPE (100=total damage to plant; 0=no damage to plant). In short, it runs like this:
as §1

Another experiment relates to Setaria faberi (SETFA). Conditions: Setaria faberi, post-emergence, 312 h; Application Rate 500 g/Ha; evaluated after 13 days; Method A; read-out: Control of weed species after post-emergence application, SETFA (100=total damage to plant; 0=no damage to plant). In short, it runs like this:
as §1

Counter-ions that a name gives are not always drawn.

Consider `O=C(O)C(O)C[n+]1ccc(-c2ccncn2)cn1` (stereo not drawn) [Compound A190], for which the pest or weed control at 500 g/ha in experiment [1] was 60%; in experiment [2] it was 70%; in experiment [3], 80%; in experiment [4], 100%; in the experiment with Eleusine indica (ELEIN) it was 70%; in experiment [5] it was 80%. Further, the figures for the pest or weed control at 500 g/ha (in experiment [6]; with Lolium perenne (LOLPE); in the experiment on Setaria faberi (SETFA)) were 60%, 40% and 40%, respectively.
For the compound `N#Cc1cnc(-c2cc[n+](CCS(=O)(=O)[O-])nc2)cn1` [Compound A191], the pest or weed control at 500 g/ha in experiment [1] stood at 20%; in [2] it was 30%; in [3], 30%; in experiment [4] it was 100%; with Eleusine indica (ELEIN), 30%; in [5] it was 30%. In addition, the values for the pest or weed control at 500 g/ha (in experiment [6]; with Lolium perenne (LOLPE); in the experiment on Setaria faberi (SETFA)) were 10%, 30% and 20%, respectively.
Consider `COC(=O)C(C)[n+]1ccc(-c2ncccn2)cn1` (stereo not drawn) [Compound A192], for which the pest or weed control at 500 g/ha worked out at 30% in experiment [1]; 30% in experiment [2]; 60% in experiment [3]; 90% in experiment [4]; 30% with Eleusine indica (ELEIN); 40% in experiment [5]. Moreover, the pest or weed control at 500 g/ha was found to be 30% in [6], 10% in the experiment on Lolium perenne (LOLPE) and 20% in the experiment with Setaria faberi (SETFA).
As for `CC(C(=O)OC(C)(C)C)[n+]1ccc(-c2ncccn2)cn1` (stereo not drawn) [Compound A193], the pest or weed control at 500 g/ha in [1] was determined as 30%; in experiment [2], 30%; in [3], 60%; in [4] it was 70%; in the experiment on Eleusine indica (ELEIN) it was 30%; in [5], 60%. Besides, the pest or weed control at 500 g/ha (in experiment [6]; in the experiment on Lolium perenne (LOLPE); in the experiment on Setaria faberi (SETFA)) was 10% in each case.
As to `O=S(=O)([O-])OCC[n+]1ccc(-c2ncccn2)cn1` [Compound A194, 2-(4-pyrimidin-2-ylpyridazin-1-ium-1-yl)ethyl sulfate], the pest or weed control at 500 g/ha in experiment [1] came to 50%; in experiment [2], 60%; in [3] it was 70%; in [4], 100%; with Eleusine indica (ELEIN) it was 90%; in experiment [5], 70%. For the same compound, the pest or weed control at 500 g/ha in [6] worked out at 70%; in the experiment with Lolium perenne (LOLPE), 50%; in the experiment with Setaria faberi (SETFA) it was 50%.
Take `Cc1cc(F)cnc1-c1cc[n+](CCCS(=O)(=O)[O-])nc1` [Compound A196]: the pest or weed control at 500 g/ha came out at 0% in experiment [1]; 20% in [2]; 40% in experiment [3]; 30% in experiment [4]; 10% in the experiment with Eleusine indica (ELEIN); 30% in experiment [5]. Moreover, the pest or weed control at 500 g/ha (in [6]; in the experiment on Lolium perenne (LOLPE); in the experiment on Setaria faberi (SETFA)) was 0% throughout.
On to `O=C(O)CC[n+]1ccc(-c2ncc(C(F)(F)F)cc2Cl)cn1` [Compound A197], for which the pest or weed control at 500 g/ha came out at 20% in experiment [1]; 10% in experiment [2]; 10% in experiment [3]; 100% in [4]; 10% in the experiment with Eleusine indica (ELEIN); 10% in experiment [5]. Further, the pest or weed control at 500 g/ha (in experiment [6]; with Lolium perenne (LOLPE); in the experiment with Setaria faberi (SETFA)) was 0% in each case.
For `O=P(O)(O)CC[n+]1ccc(-c2ncccn2)cn1` [Compound A198], the pest or weed control at 500 g/ha amounted to 80% in [1]; 50% in [2]; 100% in [3]; 100% in experiment [4]; 80% in the experiment on Eleusine indica (ELEIN); 100% in experiment [5]. Moreover, the pest or weed control at 500 g/ha was 80% in experiment [6], 50% in the experiment with Lolium perenne (LOLPE) and 90% in the experiment on Setaria faberi (SETFA).
As for `O=C(O)CC[n+]1ccc(-c2ccc(C(F)(F)F)cn2)cn1` [Compound A200], the pest or weed control at 500 g/ha in [1] was 40%; in experiment [2], 10%; in [3], 70%; in [4] it was 100%; in the experiment on Eleusine indica (ELEIN) it was 30%; in experiment [5], 70%. Also, the pest or weed control at 500 g/ha in experiment [6] was 40%; with Lolium perenne (LOLPE), 40%; in the experiment with Setaria faberi (SETFA), 50%.
On to `N[C@@H](CC[n+]1ccc(-c2ncccn2)cn1)C(=O)O` [Compound A201, [(1S)-1-carboxy-3-(4-pyrimidin-2-ylpyridazin-1-ium-1-yl)propyl]ammonium 2,2,2-trifluoroacetate], for which the pest or weed control at 500 g/ha in experiment [1] is 80%; in experiment [2], 40%; in [3], 100%; in experiment [4], 100%; in the experiment with Eleusine indica (ELEIN), 100%; in experiment [5], 90%. The figures for the pest or weed control at 500 g/ha (in [6]; in the experiment on Lolium perenne (LOLPE); in the experiment on Setaria faberi (SETFA)) were 70%, 30% and 80%, respectively.
As for `NC(=O)c1cnc(-c2cc[n+](CCC(=O)O)nc2)cn1` [Compound A202, 3-[4-(5-carbamoylpyrazin-2-yl)pyridazin-1-ium-1-yl]propanoic acid 2,2,2-trifluoroacetate], the pest or weed control at 500 g/ha in [1] was found to be 60%; in experiment [2], 60%; in experiment [3], 90%; in experiment [4] it was 100%; with Eleusine indica (ELEIN) it was 20%; in experiment [5], 100%. In addition, the pest or weed control at 500 g/ha in experiment [6] turned out to be 80%; in the experiment with Lolium perenne (LOLPE), 70%; in the experiment with Setaria faberi (SETFA), 70%.
Turning to `COC(=O)CC[n+]1ccc(-c2ccncc2)cn1` [Compound A203], the pest or weed control at 500 g/ha is 70% in experiment [1]; 20% in experiment [2]; 90% in experiment [3]; 100% in experiment [4]; 60% with Eleusine indica (ELEIN); 50% in [5]. For the same compound, the figures for the pest or weed control at 500 g/ha (in [6]; in the experiment with Lolium perenne (LOLPE); in the experiment on Setaria faberi (SETFA)) were 50%, 0% and 60%, respectively.
As for `CCOP(=O)(CCC[n+]1ccc(-c2ncccn2)cn1)OCC` [Compound A204], the pest or weed control at 500 g/ha amounted to 0% in experiment [1]; 0% in experiment [2]; 20% in experiment [3]; 10% in [4]; 0% in the experiment with Eleusine indica (ELEIN); 0% in experiment [5]. Moreover, the pest or weed control at 500 g/ha (in experiment [6]; with Lolium perenne (LOLPE); in the experiment on Setaria faberi (SETFA)) was 0% each time.
`OCCC[n+]1ccc(-c2ncccn2)cn1` [Compound A206]: the pest or weed control at 500 g/ha came to 20% in [1]; 20% in experiment [2]; 90% in experiment [3]; 60% in experiment [4]; 10% in the experiment on Eleusine indica (ELEIN); 60% in experiment [5]. The pest or weed control at 500 g/ha in experiment [6] was 20%; in the experiment on Lolium perenne (LOLPE) it was 0%; in the experiment with Setaria faberi (SETFA) it was 10%.
